Experimental data taken from patent US8481527B2, “Benzamide derivatives as bradykinin antagonists” (Richter Gedeon Nyrt., priority 2006, dated 2013).
Like-named read-outs stand apart in the source and are kept apart here.

Legend:
[1] = target: T1, recombinant human B1 receptors (Homo sapiens, UniProt P46663); experiment: Functional assay: antagonist potency by cytosolic calcium measurement in CHO-B1 cells (agonist LysDABK); format: cell-based
T1 construct: host or cells: CHO (CHO-B1)
T1 sequence (P46663 1-353): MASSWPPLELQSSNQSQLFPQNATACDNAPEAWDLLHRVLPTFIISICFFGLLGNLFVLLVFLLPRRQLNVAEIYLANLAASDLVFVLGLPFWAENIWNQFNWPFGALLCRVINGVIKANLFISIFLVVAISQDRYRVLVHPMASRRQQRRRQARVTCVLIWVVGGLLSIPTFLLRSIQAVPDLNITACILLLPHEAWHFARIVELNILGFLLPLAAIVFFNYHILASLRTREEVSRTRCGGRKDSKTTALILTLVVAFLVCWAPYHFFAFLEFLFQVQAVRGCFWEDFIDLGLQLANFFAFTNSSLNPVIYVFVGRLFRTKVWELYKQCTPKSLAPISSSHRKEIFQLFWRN
Experimental: Assessment of Antagonist Potency at B1 and B2 Receptors In Vitro by Measurement of Cytosolic Calcium Ion Concentration with a Plate Reader Fluorimeter in Cells Expressing Recombinant Human B1 or B2 Receptors
Chinese hamster ovary (CHO) cells stably expressing recombinant human B1 (CHO-B1, Euroscreen) or B2 (CHO-B2, Perkin-Elmer) receptors were cultured in Dulbecco's Modified Eagle's Medium (DMEM) containing 10% Fetal Calf Serum (FCS), 100 U/ml penicillin, 0.1 mg/ml streptomycin, 0.25 μg/ml amphotericin B, 1% Minimum Essential Medium Eagle (MEM), non essential amino acid solution, 600 μg/ml G418, 1% pyruvate (for the B2 cell line). Cells were kept at 37° C. in a humidified incubator in an atmosphere of 5% CO2/95% air and were passaged 1:4 three times a week. Cells were plated at 1.5-2.5×10^4 cell/well on standard 96-well microplates, measurements of cytosolic calcium ion concentration ([Ca^2+]i) were carried out 1-2 days after cell plating.
Measurements of [Ca^2+]i were carried out on CHO-B1 and CHO-B2 cells stably expressing human B1 and B2 receptors, respectively. Cells were grown in standard 96-well microplates and before the measurement were loaded with a fluorescent Ca^2+-sensitive dye, fluo-4/AM (2 μM): after removing the culture medium the dye was added to the cells (dissolved in assay buffer: 145 mM NaCl, 5 mM KCl, 2 mM MgCl2, 2 mM CaCl2, 10 mM HEPES, 20 mM D-glucose, 2 mM probenecid, 100 μl/well) and cells were incubated at 37° C. in a humidified incubator in an atmosphere of 5% CO2/95% air for 40-120 min. To stop dye loading cells were washed twice with assay buffer. After washing, various concentrations of the test compounds (diluted in extracellular medium from a DMSO stock solution, final DMSO concentration was <0.1%) or buffer were added to each well depending on the experimental setup. After incubation at 37° C. for 20-25 min. baseline and agonist-evoked changes of [Ca^2+]i were measured column by column with a plate reader fluorimeter (Fluoroskan Ascent, Labsystems). Excitation and detection of emission was carried out from the bottom of the plate. Filters used for Fluo-4: excitation filter—485 nm, emission filter—538 nm. The whole measurement process was performed at 37° C. and was controlled by custom software. Inhibitory potency of the test compounds was assessed by measuring the reduction in the agonist-evoked [Ca^2+]i-elevation in the presence of different concentrations of the compounds. The agonists were LysDABK for CHO-B1, and bradykinin for CHO-B2 cells. Agonists were applied at an EC80 concentration, the EC80-values were derived from daily determined dose-response curves. Fluorescence data were expressed as ΔF/F (fluorescence change normalized to baseline). All treatments on a single plate were measured in multiple wells. Data from all wells with the same treatment were averaged and the average values were used for analysis. Inhibitory potency of a compound at a single concentration point was expressed as percent inhibition of the control agonist response. Sigmoidal concentration-inhibition curves were fitted to the data (derived from at least three independent experiments) and IC50-values were determined as the concentration that produces half of the maximal inhibition caused by the compound.

[2] = target: T2, human recombinant bradykinin B1 receptor (Homo sapiens, UniProt P46663); experiment: Human recombinant bradykinin B1 receptor binding
T2 construct: purchased Euroscreen ES-091; host or cells: CHO cells
T2 sequence (P46663 1-353): T1 sequence (P46663 1-353)
Experimental: Receptor Binding Assays 1. Human Recombinant Bradykinin B1 Receptor Binding
Binding assays were carried out on human recombinant bradykinin) receptors (expressed in CHO cells) according to the Euroscreen Technical Data Sheet (Cat.No.:ES-091). 20 μg protein/tube was incubated with [3,4-prolyl-3,4-^3H(N)]-[Des-Arg^10] Kallidin as radioligand. Non specific binding was determined in the presence of 10 μM Lys-des-Arg^9-Bradykinin. The final incubation volume was 250 μl. Samples were incubated for 15 min. at 25° C. then were rapidly vacuum filtered through GF/B filters presoaked for at least 1 h in 0.5% PEI. Radioactivity was determined by liquid scintillation spectroscopy.

[3] = CHO-B1 cells, LysDABK at EC80, fluo-4 [Ca2+]i, read-out: B1 func.
[4] = CHO cell membranes, [3H]-[Des-Arg10] Kallidin radioligand, read-out: B1 binding

Row | Compound | IC50 [1, 3] [nM] | Ki [2, 4] [nM] | IC50 ([1]; reference compounds, functional test, read-out: IC50) [nM] | Ki ([2]; reference compounds, binding test, read-out: Ki) [nM]
1 | CN1CCN(C(=O)C2CCN(S(=O)(=O)c3ccc(NCC(c4ccccc4)c4ccccc4)c(C(=O)N4CCOCC4)c3)CC2)CC1 [NVP-SAA164, 4-{2-[(2,2-diphenyl-ethyl)-amino]-5-{-4-[4-[(4-methyl-1-piperazinyl)-carbonyl]-1-piperidinyl]-sulfonyl}-benzoyl}-morfoline, reference compound] |  |  | 33 | 8
2 | O=C(NCC(=O)N1CCN(CCCN2CCCCC2)CC1)c1ccc(S(=O)(=O)Nc2ccccc2Oc2ccc(Cl)cc2Cl)cc1 [Example 1.9, 4-[2-(2,4-Dichloro-phenoxy)-phenylsulfamoyl]-N-{2-oxo-2-[4-(3-piperidin-1-yl-propyl)-piperazin-1-yl]-ethyl}-benzamide] | < 20 | < 20 |  | 
3 | CN1CCCC(CN2CCN(C(=O)CNC(=O)c3ccc(S(=O)(=O)Nc4ccccc4Oc4ccc(Cl)cc4Cl)cc3)CC2)C1 (stereo not drawn) [Example 1.5, 4-[2-(2,4-Dichloro-phenoxy)-phenylsulfamoyl]-N-{2-[4-(1-methyl-piperidin-3-ylmethyl)-piperazin-1-yl]-2-oxo-ethyl}-benzamide] | < 20 | < 20 |  | 
4 | CC1CCN(C(=O)CNC(=O)c2ccc(S(=O)(=O)Nc3ccccc3C(=O)c3ccccc3)cc2)CC1 [Example 3.7, 4-(2-Benzoyl-phenylsulfamoyl)-N-[2-(4-methyl-piperidin-1-yl)-2-oxo-ethyl]-benzamide] | < 20 | < 20 |  | 
5 | O=C(NCC(=O)N1CCN(CCN2CCCC2)CC1)c1ccc(S(=O)(=O)Nc2ccccc2C(=O)c2ccccc2)cc1 [Example 3.1, 4-(2-Benzoyl-phenylsulfamoyl)-N-{2-oxo-2-[4-(2-pyrrolidin-1-yl-ethyl)-piperazin-1-yl]-ethyl}-benzamide] | < 20 | < 20 |  | 

Further lines, with some results ahead:

Row | IC50 [1, 3] [nM] | Ki [2, 4] [nM] | Compound | IC50 ([1]; reference compounds, functional test, read-out: IC50) [nM] | Ki ([2]; reference compounds, binding test, read-out: Ki) [nM]
6 | < 20 | < 20 | CN(C)CCN1CCN(C(=O)CNC(=O)c2ccc(S(=O)(=O)Nc3ccccc3Oc3ccc(Cl)cc3Cl)cc2)CC1 [Example 1.2, 4-[2-(2,4-Dichloro-phenoxy)-phenylsulfamoyl]-N-{2-[4-(2-dimethylamino-ethyl)-piperazin-1-yl]-2-oxo-ethyl}-benzamide] |  | 
7 | < 20 | < 20 | O=C(NCC(=O)N1CCN(CCN2CCCCC2)CC1)c1ccc(S(=O)(=O)Nc2ccccc2Oc2ccc(Cl)cc2Cl)cc1 [Example 1.13, 4-[2-(2,4-Dichloro-phenoxy)-phenylsulfamoyl]-N-{2-oxo-2-[4-(2-piperidin-1-yl-ethyl)-piperazin-1-yl]-ethyl}-benzamide] |  | 
8 | < 20 | < 20 | CN(C)CCCN1CCN(C(=O)CNC(=O)c2ccc(S(=O)(=O)Nc3ccccc3Oc3ccccc3)cc2)CC1 [Example 2.6, N-{2-[4-(3-Dimethylamino-propyl)-piperazin-1-yl]-2-oxo-ethyl}-4-(2-phenoxy-phenylsulfamoyl)-benzamide] |  | 
9 | < 20 | < 20 | CCN(CC)CCN1CCN(C(=O)CNC(=O)c2ccc(S(=O)(=O)Nc3ccccc3Oc3ccc(Cl)cc3Cl)cc2)CC1 [Example 1.3, 4-[2-(2,4-Dichloro-phenoxy)-phenylsulfamoyl]-N-{2-[4-(2-diethylamino-ethyl)-piperazin-1-yl]-2-oxo-ethyl}-benzamide] |  | 
